Source: patent US20040110802A1, “Antibacterial benzoic acid derivatives” (priority 2002, published 2004)
In brackets after ≈: the same amount, converted by molar mass.

tested on: SAUR 9218; assay: MIC Test Method, standard agar dilution; type: cell-based; conditions: agar dilution, Mueller Hinton agar, incubated overnight at 35° C.; lowest concentration that inhibits visible growth
How it was run: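 Agar dilution in Mueller Hinton agar with serial 2-fold compound dilutions. Staphylococcus aureus strain 9218 spotted at approximately 10^4 to 10^5 cells per spot, incubated overnight at 35 °C; MIC (μg/ml) is the lowest concentration preventing visible growth.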

| SAUR 9218 MIC [µg/mL] | SMILES |
| --- | --- |
| 2 | CN(c1ccc(Cl)cc1)S(=O)(=O)c1cc(C(=O)Nc2ccc(Br)cc2C(=O)O)cs1 [drawing 825] |

same assay, conditions: agar dilution, Mueller Hinton agar, incubated overnight at 35° C.; lowest concentration that inhibits visible growth; read-out: SAUR 9218 MIC

| SMILES | MIC [µg/mL] |
| --- | --- |
| CN(c1ccc(Cl)cc1)S(=O)(=O)c1cc(C(=O)Nc2ccc(Br)cc2C(=O)O)cs1 [drawing 1603] | 4 (≈ 7.55 µM) |
| CCC1CCCCN1S(=O)(=O)c1cc(C(=O)Nc2ccc(C#N)cc2C(=O)O)sc1C (stereo not shown) | 2 (≈ 4.33 µM) |
| CCCCCSc1ccc(C(=O)Nc2ccc(C#N)cc2C(=O)O)cn1 | 0.125 (≈ 0.338 µM) |
| Cc1sc(C(=O)Nc2ccc(C#N)cc2C(=O)O)cc1S(=O)(=O)N1CCCC1C (stereo not shown) | 8 (≈ 18.5 µM) |
| Cc1noc(C)c1C#Cc1cncc(C(=O)Nc2ccc(C#N)cc2C(=O)O)c1 | 16 (≈ 41.4 µM) |
| CCCCN(CCCC)CCCNS(=O)(=O)c1csc(C(=O)Nc2ccc(Br)cc2C(=O)O)c1C | > 128 |
| O=C(Nc1ccc(Br)cc1C(=O)O)C1=NS(=O)(=O)c2ccccc21 | > 128 |
| CN(C)S(=O)(=O)c1ccc2onc(C(=O)Nc3ccc(Br)cc3C(=O)O)c2c1 | 0.25 (≈ 0.534 µM) |
| CCC(C)Sc1cnc(C(=O)Nc2ccc(Br)cc2C(=O)O)cn1 (stereo not shown) | 0.5 (≈ 1.22 µM) |
| Cc1cc(C(=O)Nc2ccc(C#N)cc2C(=O)O)c(C)o1 | > 128 |
| CCOC(=O)CCSc1ccc(C(=O)Nc2ccc(C#N)cc2C(=O)O)cn1 | 1 (≈ 2.5 µM) |
| O=C(Nc1ccc(Br)cc1C(=O)O)c1cccc(Br)n1 | 64 (≈ 160 µM) |
| COCCOCCCSc1ccc(C(=O)Nc2ccc(Cl)cc2C(=O)O)cn1 | 4 (≈ 9.41 µM) |
| CCCCCCSc1ccc(C(=O)Nc2ccc(C#N)cc2C(=O)O)cn1 | 0.125 (≈ 0.326 µM) |
| Cc1noc(C)c1-c1cncc(C(=O)Nc2ccc(C#N)cc2C(=O)O)c1 | 16 (≈ 44.2 µM) |
| Cc1sc(C(=O)Nc2ccc(C#N)cc2C(=O)O)cc1S(=O)(=O)N1CCCC(C)C1 (stereo not shown) | 2 (≈ 4.47 µM) |
| CCCCN(CC)S(=O)(=O)c1cc(C(=O)Nc2ccc(C#N)cc2C(=O)O)sc1C | 8 (≈ 17.8 µM) |
| Cc1sc(C(=O)Nc2ccc(C#N)cc2C(=O)O)cc1S(=O)(=O)N1CCCC2CCCCC21 (stereo not shown) | 32 (≈ 65.6 µM) |
| O=C(Nc1ccc(Br)cc1C(=O)O)c1ncc(-c2ccc(F)cc2)o1 | 2 (≈ 4.94 µM) |
| N#Cc1ccc(/C=C/c2cc(-c3ccccc3)on2)c(C(=O)O)c1 | 64 (≈ 202 µM) |

| SMILES | MIC [µg/mL] |
| --- | --- |
| COc1cc2c(cc1OC)CN(S(=O)(=O)c1cc(C(=O)Nc3ccc(C#N)cc3C(=O)O)sc1C)CC2 | 8 (≈ 14.8 µM) |
| Cc1sc(C(=O)Nc2ccc(C#N)cc2C(=O)O)cc1S(=O)(=O)N1CC(C)OC(C)C1 (stereo not shown) | 16 (≈ 34.5 µM) |
| COCOCC(CCc1cc(C(=O)Nc2ccc(Br)cc2C(=O)O)no1)OCOC (stereo not shown) | 8 (≈ 16.4 µM) |
| Cc1c(S(=O)(=O)NC2CCN(Cc3ccccc3)CC2)csc1C(=O)Nc1ccc(Br)cc1C(=O)O | > 128 |
| COCCOCCCSc1ccc(C(=O)Nc2ccc(Br)cc2C(=O)O)cn1 | 0.5 (≈ 1.07 µM) |
| CCCCCSc1cnc(C(=O)Nc2ccc(Cl)cc2C(=O)O)cn1 | 0.125 (≈ 0.329 µM) |
| N#Cc1ccc(NC(=O)c2ccc3c(c2)OCO3)c(C(=O)O)c1 | 16 (≈ 51.6 µM) |
| CCCCCCSc1cnc(C(=O)Nc2ccc(C#N)cc2C(=O)O)nc1 | 2 (≈ 5.2 µM) |
| CCCCSc1cnc(C(=O)Nc2ccc(Cl)cc2C(=O)O)cn1 | 0.5 (≈ 1.37 µM) |
| N#Cc1ccc(NC(=O)c2cc(CCCC3CCCCC3)on2)c(C(=O)O)c1 | 0.25 (≈ 0.655 µM) |
| N#Cc1ccc(NC(=O)c2noc3c2CCCC3)c(C(=O)O)c1 | 0.5 (≈ 1.61 µM) |
| O=C(Nc1ccc(Br)cc1C(=O)O)c1cc(-c2ccccc2F)on1 | 0.5 (≈ 1.23 µM) |
| N#Cc1ccc(NC(=O)c2nnc(SCc3ccccc3)s2)c(C(=O)O)c1 | 0.125 (≈ 0.315 µM) |
| O=C(Nc1ccc(Br)cc1C(=O)O)c1cc(-c2ccccc2C(F)(F)F)on1 | 0.5 (≈ 1.1 µM) |
| COc1cccc(-c2cc(C(=O)Nc3ccc(O)cc3C(=O)O)no2)c1 | 0.25 (≈ 0.706 µM) |
| Cn1nc(C(=O)Nc2ccc(Br)cc2C(=O)O)cc1-c1ccccc1 | 32 (≈ 80 µM) |
| Cc1sc(C(=O)Nc2ccc(Br)cc2C(=O)O)cc1S(=O)(=O)N1CCN(c2ccc(Cl)cc2)CC1 | > 128 |
| O=C(O)c1cc(Cl)ccc1/C=C/c1cc(-c2ccccc2)on1 | 32 (≈ 98.2 µM) |
| COc1ccccc1-c1cc(C(=O)Nc2ccc(Br)cc2C(=O)O)no1 | 0.125 (≈ 0.3 µM) |

Results, then the compound that gave them:

| MIC [µg/mL] | SMILES |
| --- | --- |
| 0.5 (≈ 1.22 µM) | Cn1c(C(=O)Nc2ccc(C#N)cc2C(=O)O)cc2cccc(OC[C@H](O)CO)c21 |
| 0.5 (≈ 1.1 µM) | N#Cc1ccc(NC(=O)c2cc3cccc(NC(=O)COc4ccccc4)c3[nH]2)c(C(=O)O)c1 |
| 2 (≈ 4.76 µM) | CC(=O)OCC(=O)Nc1cccc2cc(C(=O)Nc3ccc(C#N)cc3C(=O)O)[nH]c12 |
| 8 (≈ 19.4 µM) | N#Cc1ccc(-c2cnc(C(=O)Nc3ccc(Br)cc3C(=O)O)o2)cc1 |
| 2 (≈ 5.12 µM) | CCCC(=O)Nc1cccc2cc(C(=O)Nc3ccc(C#N)cc3C(=O)O)[nH]c12 |
| 1 (≈ 2.49 µM) | N#Cc1ccc(NC(=O)c2cc(-c3ccc(C(F)(F)F)cc3)on2)c(C(=O)O)c1 |
| 0.25 (≈ 0.668 µM) | N#Cc1ccc(NC(=O)c2cc3cccc4c3n2CC/C4=N\O)c(C(=O)O)c1 |
| 1 (≈ 3.25 µM) | N#Cc1ccc(NC(=O)c2nc3ccccc3o2)c(C(=O)O)c1 |
| 0.03 (≈ 0.0356 µM) | Cn1c(C(=O)Nc2ccc(C#N)cc2C(=O)O)cc2cccc(C(OOSc3cnc(Cl)c(Br)c3)S(=O)(=O)c3cnc(Cl)c(Br)c3)c21 (stereo not shown) |
| 0.5 (≈ 1.08 µM) | CS(=O)(=O)c1ccc(-c2ccc3onc(C(=O)Nc4ccc(C#N)cc4C(=O)O)c3c2)cc1 |
| 0.5 (≈ 1.38 µM) | COc1ccc(-c2cc(C(=O)Nc3ccc(C#N)cc3C(=O)O)no2)cc1 |
| 0.5 (≈ 1.38 µM) | N#Cc1ccc(NC(=O)c2cc3cccc4c3n2CCC4O)c(C(=O)O)c1 (stereo not shown) |
| 4 (≈ 7.96 µM) | CS(=O)(=O)c1ccccc1C(=O)Nc1cccc2cc(C(=O)Nc3ccc(C#N)cc3C(=O)O)[nH]c12 |
| 1 (≈ 3.12 µM) | N#Cc1ccc(NC(=O)c2cc3cccc(N)c3[nH]2)c(C(=O)O)c1 |
| 1 (≈ 1.9 µM) | Cn1c(C(=O)Nc2ccc(C#N)cc2C(=O)O)cc2ccc(NS(=O)(=O)c3cccc4cccnc34)cc21 |
| 0.5 (≈ 1.55 µM) | N#Cc1ccc(NC(=O)c2noc3ccc(N)cc23)c(C(=O)O)c1 |
| 0.5 (≈ 1.12 µM) | CCCCC(CC)C(=O)Nc1cccc2cc(C(=O)Nc3ccc(C#N)cc3C(=O)O)[nH]c12 (stereo not shown) |
| 4 (≈ 12.4 µM) | N#Cc1ccc(NC(=O)c2cc3cccnc3s2)c(C(=O)O)c1 |
| 0.125 (≈ 0.294 µM) | Cn1c(C(=O)Nc2ccc(C#N)cc2C(=O)O)cc2ccc(OCc3ccccc3)cc21 |

| MIC [µg/mL] | SMILES |
| --- | --- |
| 0.5 (≈ 1.04 µM) | Cn1c(C(=O)Nc2ccc(C#N)cc2C(=O)O)cc2ccc(NS(=O)(=O)c3cccs3)cc21 |
| 0.5 (≈ 1.21 µM) | Cn1c(C(=O)Nc2ccc(C#N)cc2C(=O)O)cc2ccc(-c3ccccc3F)cc21 |
| 0.25 (≈ 0.605 µM) | N#Cc1ccc(NC(=O)c2noc3cc(OCc4ccccc4)ccc23)c(C(=O)O)c1 |
| 0.25 (≈ 0.515 µM) | COc1ccc(-c2ccc3cc(C(=O)Nc4ccc(C#N)cc4C(=O)O)n(C)c3c2)c(OC)c1OC |
| 2 (≈ 3.28 µM) | Cn1c(C(=O)Nc2ccc(C#N)cc2C(=O)O)cc2c(Br)cc(Br)c(NC(=O)Cc3ccccc3)c21 |
| 0.5 (≈ 1.5 µM) | N#Cc1ccc(NC(=O)c2cc(-c3ccccc3)no2)c(C(=O)O)c1 |
| 0.125 (≈ 0.196 µM) | CS(=O)(=O)Nc1ccc(-c2cc3onc(C(=O)Nc4ccc(C#N)cc4C(=O)O)c3cc2NS(C)(=O)=O)c(C(F)(F)F)c1 |
| 64 (≈ 192 µM) | N#Cc1ccc(NC(=O)c2coc(-c3ccccc3)n2)c(C(=O)O)c1 |
| 0.125 (≈ 0.261 µM) | CS(=O)(=O)N(c1ccc2onc(C(=O)Nc3ccc(C#N)cc3C(=O)O)c2c1)S(C)(=O)=O |
| 0.5 (≈ 1.05 µM) | CC(C)=CCOCC(O)COc1cccc2cc(C(=O)Nc3ccc(C#N)cc3C(=O)O)n(C)c12 (stereo not shown) |
| 2 (≈ 3.83 µM) | Cn1c(C(=O)Nc2ccc(C#N)cc2C(=O)O)cc2ccc(NC(=O)c3ccc(OC(F)(F)F)cc3)cc21 |
| 0.125 (≈ 0.259 µM) | Cn1c(C(=O)Nc2ccc(C#N)cc2C(=O)O)cc2cccc(OCC3COc4ccccc4O3)c21 (stereo not shown) |
| 0.25 (≈ 0.611 µM) | CSCCOc1cccc2cc(C(=O)Nc3ccc(C#N)cc3C(=O)O)n(C)c12 |
| 2 (≈ 4.97 µM) | CC1(C(=O)Nc2cccc3cc(C(=O)Nc4ccc(C#N)cc4C(=O)O)[nH]c23)CC1 |
| 1 (≈ 2.35 µM) | N#Cc1ccc(NC(=O)c2noc3ccc(NC(=O)c4ccccc4)cc23)c(C(=O)O)c1 |
| 32 (≈ 92.4 µM) | N#Cc1ccc(NC(=O)c2cccc(Br)n2)c(C(=O)O)c1 |
| 0.5 (≈ 1.08 µM) | N#Cc1ccc(NC(=O)c2noc3cc(OS(=O)(=O)c4ccccc4)ccc23)c(C(=O)O)c1 |
| 1 (≈ 2 µM) | N#Cc1ccc(NC(=O)c2cc3cccc(NC(=O)c4ccccc4-c4ccccc4)c3[nH]2)c(C(=O)O)c1 |
| 8 (≈ 26.9 µM) | COc1ccc(C(=O)Nc2ccc(C#N)cc2C(=O)O)cn1 |

| MIC [µg/mL] | SMILES |
| --- | --- |
| 0.125 (≈ 0.243 µM) | Cn1c(C(=O)Nc2ccc(Br)cc2C(=O)O)cc2cccc(S(=O)(=O)c3ccccc3)c21 |
| 64 (≈ 212 µM) | Cn1c(/C=C/c2ccc(C#N)cc2C(=O)O)cc2ccccc21 |
| 1 (≈ 2.57 µM) | N#Cc1ccc(NC(=O)c2cc3cccc(NC(=O)C4CC4)c3[nH]2)c(C(=O)O)c1 |
| 4 (≈ 9.52 µM) | COC(=O)CC(=O)Nc1cccc2cc(C(=O)Nc3ccc(C#N)cc3C(=O)O)[nH]c12 |
| 0.25 (≈ 0.493 µM) | N#Cc1ccc(NC(=O)c2cc3cccc(NC(=O)Cc4c(Cl)cccc4Cl)c3[nH]2)c(C(=O)O)c1 |
| 0.06 (≈ 0.151 µM) | Cc1ccccc1-c1ccc2c(C(=O)Nc3ccc(C#N)cc3C(=O)O)noc2c1 |
| 0.5 (≈ 1.18 µM) | COCC(O)COc1cccc2cc(C(=O)Nc3ccc(C#N)cc3C(=O)O)n(C)c12 (stereo not shown) |
| 0.5 (≈ 1.36 µM) | N#Cc1ccc(NC(=S)c2cc(-c3ccccc3F)on2)c(C(=O)O)c1 |
| 0.125 (≈ 0.331 µM) | N#Cc1ccc(NC(=O)c2cc(-c3ccc4c(c3)OCO4)on2)c(C(=O)O)c1 |
| > 128 | N#Cc1ccc(NC(=O)c2cncc(-c3ccccn3)c2)c(C(=O)O)c1 |
| 2 (≈ 5 µM) | CS(=O)(=O)Nc1ccc2c(C(=O)Nc3ccc(C#N)cc3C(=O)O)noc2c1 |
| 2 (≈ 4.44 µM) | N#Cc1ccc(NC(=O)c2cc3cccc4c3n2CC/C4=N\Oc2ccccc2)c(C(=O)O)c1 |
| 1 (≈ 2.01 µM) | COc1ccc(CC(=O)Nc2cccc3cc(C(=O)Nc4ccc(C#N)cc4C(=O)O)[nH]c23)cc1OC |
| 0.25 (≈ 0.623 µM) | N#Cc1ccc(NC(=O)c2cc(-c3ccccc3C(F)(F)F)on2)c(C(=O)O)c1 |
| 1 (≈ 2.49 µM) | N#Cc1ccc(NC(=O)c2cc3ccccc3n2CC2CCCCC2)c(C(=O)O)c1 |
| 4 (≈ 11.5 µM) | Cc1nn(-c2ccccc2)nc1C(=O)Nc1ccc(C#N)cc1C(=O)O |
| 0.5 (≈ 0.972 µM) | N#Cc1ccc(NC(=O)c2cc3cccc(NC(=O)Cc4ccc(-c5ccccc5)cc4)c3[nH]2)c(C(=O)O)c1 |
| 0.5 (≈ 1.12 µM) | N#Cc1ccc(NC(=O)c2noc3c2CN(C(=O)OCc2ccccc2)CC3)c(C(=O)O)c1 |
| > 128 | O=C(O)c1cc(Br)ccc1NC(=O)c1ncccc1C(=O)c1ccccc1 |
